Experimental data taken from article PMC12951562, “SH2scan: Mapping SH2 Domain-Ligand Binding Selectivity for Inhibitors and Degraders” (Journal of Medicinal Chemistry, 2026).
Non-standard residues stand in square brackets, D forms with d. Residues, ends and D or L forms follow the SMILES beside them. pY = N[C@@H](Cc1ccc(OP(=O)(O)O)cc1)C(=O)O

Assays:
Assay in all cases: biochemical
Type in all cases: binding
[1] = biological target: T1, GRB2 (Homo sapiens, UniProt P62993)
T1 construct: the DNA-tagged SH2 domain concentrations used in this study were <0.1 nM; made in house; host or cells: HEK293 (transient transfection; unpurified extract)
T1 sequence (P62993 60-152 limits assumed): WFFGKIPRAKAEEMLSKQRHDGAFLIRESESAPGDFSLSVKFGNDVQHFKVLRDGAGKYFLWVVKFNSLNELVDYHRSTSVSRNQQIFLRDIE

[2] = biological target: T2, PTPN11(SH2dom.C-term.) (Homo sapiens, UniProt Q06124)
T2 construct: SH2dom.C-term. denotes SH2 domain closest to C-terminus of protein; made in house; host or cells: HEK293 (transient transfection, unpurified extract)
T2 sequence (Q06124 112-216 limits assumed): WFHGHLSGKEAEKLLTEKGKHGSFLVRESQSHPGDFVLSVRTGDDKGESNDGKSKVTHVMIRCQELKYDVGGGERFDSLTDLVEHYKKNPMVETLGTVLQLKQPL

[3] = biological target: T3, CBLB (Homo sapiens, UniProt Q13191)
T3 construct: the DNA-tagged SH2 domain concentrations used in this study were <0.1 nM; made in house; host or cells: HEK293 (transient transfection; unpurified extract)
T3 sequence (Q13191 241-343 limits assumed): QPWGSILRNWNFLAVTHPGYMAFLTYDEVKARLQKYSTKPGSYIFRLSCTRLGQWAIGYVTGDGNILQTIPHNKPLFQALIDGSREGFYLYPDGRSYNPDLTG

[4] = biological target: T4, CBLC (Homo sapiens, UniProt Q9ULV8)
T4 construct: the DNA-tagged SH2 domain concentrations used in this study were <0.1 nM; made in house; host or cells: HEK293 (transient transfection; unpurified extract)
T4 sequence (Q9ULV8 219-321 limits assumed): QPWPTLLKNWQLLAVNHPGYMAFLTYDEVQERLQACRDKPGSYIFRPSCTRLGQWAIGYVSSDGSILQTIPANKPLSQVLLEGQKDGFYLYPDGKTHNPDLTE

[5] = biological target: T5, GRAP (Homo sapiens, UniProt Q13588)
T5 construct: the DNA-tagged SH2 domain concentrations used in this study were <0.1 nM; made in house; host or cells: HEK293 (transient transfection; unpurified extract)
T5 sequence (Q13588 60-154 limits assumed): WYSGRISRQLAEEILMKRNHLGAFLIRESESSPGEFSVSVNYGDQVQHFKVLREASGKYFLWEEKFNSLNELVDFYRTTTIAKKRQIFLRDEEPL

[6] = biological target: T6, SRMS (Homo sapiens, UniProt Q9H3Y6)
T6 construct: made in house; host or cells: HEK293 (transient transfection), unpurified extract
T6 sequence (Q9H3Y6 whole entry): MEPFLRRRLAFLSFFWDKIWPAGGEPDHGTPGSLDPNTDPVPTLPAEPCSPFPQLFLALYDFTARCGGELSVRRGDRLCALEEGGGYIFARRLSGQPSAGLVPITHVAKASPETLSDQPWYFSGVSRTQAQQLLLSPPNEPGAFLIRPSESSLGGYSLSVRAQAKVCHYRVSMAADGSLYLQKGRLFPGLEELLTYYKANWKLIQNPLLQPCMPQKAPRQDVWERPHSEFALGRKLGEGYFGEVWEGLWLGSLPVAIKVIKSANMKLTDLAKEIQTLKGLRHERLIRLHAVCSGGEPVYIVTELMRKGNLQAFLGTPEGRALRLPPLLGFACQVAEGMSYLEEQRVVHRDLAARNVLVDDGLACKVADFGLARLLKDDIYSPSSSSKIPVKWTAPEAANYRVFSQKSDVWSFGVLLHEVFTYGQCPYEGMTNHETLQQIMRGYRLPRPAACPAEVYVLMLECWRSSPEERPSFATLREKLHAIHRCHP

[7] = biological target: T7, SH2D1B (Homo sapiens, UniProt O14796)
T7 construct: made in house; host or cells: HEK293 (transient transfection), unpurified extract
T7 sequence (O14796 1-132): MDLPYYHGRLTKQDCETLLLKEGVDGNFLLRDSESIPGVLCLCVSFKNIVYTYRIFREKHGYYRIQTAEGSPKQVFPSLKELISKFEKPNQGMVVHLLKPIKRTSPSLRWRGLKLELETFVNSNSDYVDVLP

[8] = biological target: T8, FGR (Homo sapiens, UniProt P09769)
T8 construct: the DNA-tagged SH2 domain concentrations used in this study were <0.1 nM; made in house; host or cells: HEK293 (transient transfection; unpurified extract)
T8 sequence (P09769 144-241 limits assumed): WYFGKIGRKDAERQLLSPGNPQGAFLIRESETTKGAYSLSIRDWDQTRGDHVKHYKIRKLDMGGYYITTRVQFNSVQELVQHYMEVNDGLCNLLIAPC

[9] = biological target: T9, LYN (Homo sapiens, UniProt P07948)
T9 construct: the DNA-tagged SH2 domain concentrations used in this study were <0.1 nM; made in house; host or cells: HEK293 (transient transfection, unpurified extract)
T9 sequence (P07948 129-226 limits assumed): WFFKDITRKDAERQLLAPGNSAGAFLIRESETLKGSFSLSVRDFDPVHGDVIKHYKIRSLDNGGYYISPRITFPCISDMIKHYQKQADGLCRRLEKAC

[10] = biological target: T10, SH2B (SH2B1) (Homo sapiens, UniProt Q9NRF2)
T10 construct: made in house; host or cells: HEK293 (transient transfection), unpurified extract

[11] = biological target: T11, SHB (Homo sapiens, UniProt Q15464)
T11 construct: made in house; host or cells: HEK293 (transient transfection), unpurified extract
T11 sequence (Q15464 whole entry): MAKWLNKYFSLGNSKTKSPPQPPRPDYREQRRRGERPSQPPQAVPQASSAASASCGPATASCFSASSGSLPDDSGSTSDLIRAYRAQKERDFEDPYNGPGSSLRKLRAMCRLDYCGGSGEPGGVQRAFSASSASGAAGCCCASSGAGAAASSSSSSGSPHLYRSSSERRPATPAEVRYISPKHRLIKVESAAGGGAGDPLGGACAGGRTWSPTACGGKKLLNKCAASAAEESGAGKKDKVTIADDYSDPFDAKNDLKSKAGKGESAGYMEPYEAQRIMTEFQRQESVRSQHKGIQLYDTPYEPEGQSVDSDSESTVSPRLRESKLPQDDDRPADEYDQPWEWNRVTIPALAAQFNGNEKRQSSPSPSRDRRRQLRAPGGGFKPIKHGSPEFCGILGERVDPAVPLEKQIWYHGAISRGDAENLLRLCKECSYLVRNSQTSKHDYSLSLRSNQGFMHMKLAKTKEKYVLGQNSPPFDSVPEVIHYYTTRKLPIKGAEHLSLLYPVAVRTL

Structure (SMILES): CC[C@H](C)[C@H](NC(=O)[C@H](Cc1ccc(OP(=O)(O)O)cc1)NC(=O)[C@H](CO)NC(C)=O)C(=O)N[C@@H](CC(N)=O)C(=O)N[C@H](C(=O)N1CCC[C@H]1C(=O)N[C@@H](Cc1ccccc1)C(=O)N[C@H](C(=O)N[C@@H](CO)C(N)=O)[C@@H](C)O)C(C)C (Ac-S[pY]INVPFTS-NH2)
- Kd [1]: 69.4 ± 19.4 nM

Structure (SMILES): CC[C@H](C)[C@H](NC(=O)[C@@H](NC(=O)[C@H](C)NC(=O)[C@H](Cc1ccc(OP(=O)(O)O)cc1)NC(=O)[C@@H](NC(=O)[C@@H]1CCCN1C(=O)[C@H](CCC(=O)O)NC(=O)[C@@H]1CCCN1C(=O)[C@H](CO)NC(=O)[C@H](C)NC(C)=O)[C@@H](C)CC)[C@@H](C)O)C(=O)N[C@@H](CC(=O)O)C(=O)N[C@@H](Cc1ccccc1)C(=O)N[C@@H](CC(=O)O)C(N)=O [Ac-ASPEPIpYATIDFD-NH2]
- Kd [2]: 403 ± 198 nM

Structure (SMILES): CC(=O)N[C@@H](CCC(=O)O)C(=O)N[C@@H](CC(=O)O)C(=O)N[C@@H](CO)C(=O)N[C@@H](Cc1ccccc1)C(=O)N[C@@H](CC(C)C)C(=O)N[C@@H](CCC(N)=O)C(=O)N[C@@H](CCCNC(=N)N)C(=O)N[C@@H](Cc1ccc(OP(=O)(O)O)cc1)C(=O)N[C@@H](CO)C(=O)N[C@@H](CO)C(=O)N[C@@H](CC(=O)O)C(=O)N1CCC[C@H]1C(=O)N[C@H](C(N)=O)[C@@H](C)O [Ac-EDSFLQRpYSSDPT-NH2]
- Kd [3]: 373 ± 114 nM
- Kd [4]: 146 ± 52 nM

Structure (SMILES): CC(=O)N[C@@H](CCCCN)C(=O)N1CCC[C@H]1C(=O)N[C@@H](Cc1ccccc1)C(=O)N[C@@H](Cc1ccc(OP(=O)(O)O)cc1)C(=O)N[C@H](C(=O)N[C@@H](CC(N)=O)C(=O)N[C@H](C(=O)N[C@@H](CCC(=O)O)C(=O)N[C@@H](Cc1ccccc1)C(N)=O)C(C)C)C(C)C [Ac-KPFpYVNVEF-NH2] (Ac-KPF[pY]VNVEF-NH2)
- Kd [5]: 21.3 ± 4.83 nM
- Kd [6]: 23600 ± 3030 nM

Structure (SMILES): CC[C@H](C)[C@H](NC(=O)[C@@H](NC(=O)[C@H](CC(C)C)NC(=O)[C@H](CO)NC(=O)[C@H](CCCCN)NC(C)=O)[C@@H](C)O)C(=O)N[C@@H](Cc1ccc(OP(=O)(O)O)cc1)C(=O)N[C@@H](C)C(=O)N[C@@H](CCC(N)=O)C(=O)N[C@H](C(=O)N[C@@H](CCC(N)=O)C(=O)N[C@@H](CCCCN)C(N)=O)C(C)C [Ac-KSLTIpYAQVQK-NH2] (Ac-KSLTI[pY]AQVQK-NH2)
- Kd [7]: 0.14 ± 0.03 nM

Structure (SMILES): CC(=O)N1CCC[C@H]1C(=O)N[C@@H](CCC(=O)O)C(=O)NCC(=O)N[C@@H](CC(=O)O)C(=O)N[C@@H](Cc1ccc(OP(=O)(O)O)cc1)C(=O)N[C@@H](CCC(=O)O)C(=O)N[C@@H](CCC(=O)O)C(=O)N[C@H](C(=O)N[C@@H](CC(C)C)C(=O)N[C@@H](CCC(=O)O)C(N)=O)C(C)C [Ac-PEGDpYEEVLE-NH2] (Ac-PEGD[pY]EEVLE-NH2)
- Kd [8]: 1820 ± 510 nM
- Kd [9]: 765 ± 141 nM

Structure (SMILES): CC[C@H](C)[C@H](NC(=O)[C@H](CC(N)=O)NC(=O)[C@@H](NC(=O)[C@H](Cc1ccc(OP(=O)(O)O)cc1)NC(=O)[C@H](CCC(=O)O)NC(=O)CNC(=O)[C@@H]1CCCN1C(=O)[C@H](CO)NC(C)=O)C(C)C)C(=O)N[C@@H](CCC(=O)O)C(=O)N[C@@H](Cc1ccccc1)C(=O)NCC(N)=O [Ac-SPGEpYVNIEFG-NH2]
- Kd [10]: 4460 ± 615 nM
- Kd [11]: 6030 ± 1090 nM
